For the assay, the system named is 3rd instar cabbage looper. The assay can be described thus: cabbage leaf disc dip bioassay, mortality of cabbage looper. It is filed as in vivo. How it is done: An enzyme preparation, designated A, comprising an enzyme having lipase activity was diluted to 10% of the original concentration. 1 mL of the enzyme was added to 9 mL of phosphate buffered saline (PBS). The diluted enzyme was desalted using a desalting column from Sigma Aldrich. Each column having the capacity to desalt 2.5 mL of enzyme, 4 columns for the enzyme were used. Each column was equilibrated with 25 mL of PBS. 2.5 mL of sample was loaded into the column, the flow thru was discarded. 3.5 mL of PBS was added to elute the desalted enzyme. This flow thru was collected for use in the bioassay. 4.95 mL of the desalted enzyme was added to 99 mL PBS.
The chlorpyrifos insecticide (Sigma 45395) was prepared based on a stock solution of 10× (113 mg/L) using acetone. The insecticide was then diluted further using acetone to a 1:6 ratio.
Approximately 0.3 g of super absorbent granules were placed into 1.25 ounce cups and 6 mL of deionized water was added to hydrate the granules. Discs of green cabbage (2.8 cm) were cut with plastic tubing after the outer leaves had been removed. One disc was used for each individual insect. After cutting, leaf discs were rinsed in deionized water and spin dried in a small salad spinner to remove excess water.
Liquid treatments were poured into either 50 mL glass beakers for the insecticide or medium weigh boats for aqueous treatments and cabbage leaf discs were dipped in the treatment with disposable forceps, tilted to allow excess liquid to run off, and placed into cups with hydrated granules at an angle.
The cabbage leaf discs were dipped in either acetone (enzyme alone treatment) or chlorpyrifos at 18.83 mg/L of acetone. These were set to dry for 1 hr. The cabbage discs were then dipped either in phosphate buffer (chlorpyrifos alone treatments) or Enzyme A (enzyme alone or in combination with chlorpyrifos treatment), along with a 0.03% surfactant supplement.
After the cabbage discs had dried for 1 hr, a single 3rd instar cabbage looper was added to each individual cabbage disc in its cup and a paperboard lid was snapped into place. A total of 20 insects were evaluated for each treatment.
Experiment 2: This experiment was performed similar to Experiment 1, except the chemical insecticide was Clothianidin at 1:2, and the enzyme preparation, designated B, comprises an enzyme having glucosidase activity.
Experiment 3: This experiment was performed similar to Experiment 2, except the enzyme preparations, designated C and D, respectively, each comprises a different enzyme having protease activity.

Here are results for 2 compounds from patent US20250287955A1, “METHODS OF […] PLANT FROM INSECT PESTS” (NOVONESIS PLANT BIOSOLUTIONS A/S, priority 2018, published 2025).

The structures appear in SMILES notation. Where two headings read alike, the source gives them in different places.

`CCOP(=S)(OCC)Oc1nc(Cl)c(Cl)cc1Cl` [Chlorpyrifos, chlorpyrifos]: the “LT50 (95% confidence intervals) in days” value (Experiment 1, estimated time to kill 50% of the insects, Probit analysis, chlorpyrifos 18.83 mg/L, Enzyme A 0.05%, 20 insects per treatment) is listed as 11.11 (9.90-12.48) days. Further, for the setting “Trichoplusia ni, foliar, 168 h, read-out: % Mortality (7DAT), Experiment 1, Abbott's corrected, 7 days after treatment, chlorpyrifos 18.83 mg/L, Enzyme A 0.05%”, the mortality (in general, the share of the test organisms that died) at 18.83 µg/mL turned out to be 11%.
For the compound `CN/C(=N\[N+](=O)[O-])NCc1cnc(Cl)s1` [Clothianidin], the “LT50 (95% confidence intervals) in days” value (Experiment 2, Probit analysis, clothianidin 30 mg/L) is 19.37 (16.23-23.38) days. Further, the “LT50 (95% confidence intervals)” value (Experiment 3, Probit analysis, clothianidin 30 mg/L) turned out to be 12.34 days. The mortality by setting is: (Trichoplusia ni, foliar, 120 h, Experiment 3, Abbott's corrected, 5 days after treatment, clothianidin 30 mg/L, read-out: % Mortality (5DAT)) 15%; (Trichoplusia ni, foliar, 144 h, Experiment 3, Abbott's corrected, 6 days after treatment, clothianidin 30 mg/L, read-out: % Mortality (6DAT)) 20%; (Trichoplusia ni, foliar, 168 h, Experiment 3, Abbott's corrected, 7 days after treatment, clothianidin 30 mg/L, read-out: % Mortality (7DAT)) 30%; (Trichoplusia ni, foliar, 336 h, Experiment 3, Abbott's corrected, 14 days after treatment, clothianidin 30 mg/L, read-out: % Mortality (14DAT)) 45%; (Trichoplusia ni, foliar, Experiment 3, Abbott's corrected, 8-11 days after treatment, clothianidin 30 mg/L, read-out: % Mortality (8-11DAT)) 40%; (Trichoplusia ni, foliar, Experiment 3, Abbott's corrected, 12-13 days after treatment, clothianidin 30 mg/L, read-out: % Mortality (12-13DAT)) 45%. The mortality at 30 µg/mL (Trichoplusia ni, foliar, 144 h, Experiment 2, Abbott's corrected, 6 days after treatment, clothianidin 30 mg/L, read-out: % Mortality (6DAT)) was found to be 0%.
